Data on 6 compounds can be found in patent publication US7345070B2, “Peroxisome proliferator activated receptor agonists” (Eli Lilly and Company, priority 2000, dated 2008).

The test system of the assay is db/db mice. The assay can be described thus: Evaluation of glucose levels in db/db mice. The assay is classed as in vivo. To be noted: Mus musculus, 168 h, 30 mg/kg oral gavage daily for 7 days, 100% = glucose not different from lean values, read-out: Glucose Normalisation. How it is done:
Five week old male diabetic (db/db) mice [C57BlKs/j-m+/+ Lepr(db), Jackson Laboratory, Bar Harbor, Me.] or lean littermates (db+) were housed 6 per cage (10″×20″×8″ with aspen chip bedding) with food (Purina 5015) and water available at all times. After an acclimation period of 2 weeks, animals were individually identified by ear notches, weighed, and bled via the tail vein for determination of initial glucose levels. Blood was collected (100 μl) from unfasted animals by wrapping each mouse in a towel, cutting the tip of the tail with a scalpel, and milking blood from the tail into a heparinized capillary tube (Fisher) balanced on the edge of the bench. Sample was discharged into a heparinized microtainer with gel separator (VWR) and retained on ice. Plasma was obtained after centrifugation at 4° C. and glucose measured immediately. Remaining plasma was frozen until the completion of the experiment, when glucose and triglycerides were assayed in all samples. Animals were grouped based on initial glucose levels and body weights. Beginning the following morning, mice were dosed daily by oral gavage for 7 days using a 20 gauge, 1½″ curved disposable feeding needle. Treatments were test compounds (30 mg/kg), a positive control agent (30 mg/kg) or vehicle [1% carboxymethylcellulose (w/v)/0.25% Tween80 (w/v); 0.3 ml/mouse]. On day 7, mice were weighed and bled (tail vein) 3 hours after dosing. Twenty-four hours after the 7th dose (i.e., day 8), animals were bled again (tail vein). Samples obtained from conscious animals on days 0, 7 and 8 were assayed for glucose. After the 24 hour bleed, animals were weighed and dosed for the final time. Three hours after dosing on day 8, animals were anesthetized by inhalation of isoflurane and blood obtained via cardiac puncture (0.5-0.7 ml). Whole blood was transferred to serum separator tubes, chilled on ice and permitted to clot. Serum was obtained after centrifugation at 4° C. and frozen until analysis for compound levels. After sacrifice by cervical dislocation, the liver, heart and epididymal fat pads were excised and weighed.
The animals dosed with vehicle had average triglycerides values of 170-230 mg/dl, which were reduced by the positive PPARγ control (70-120 mg/dl with a mean reduction of 50%). Male db/db mice were hyperglycemic (average glucose of 680-730 mg/dl on the 7th day of treatment), while lean animals had average glucose levels between 190-230 mg/dl.
Glucose was measured […] using commercially purchased reagents (Sigma #315-500). According to the manufacturers, the procedures were modified from published work (McGowan, M. W., Artiss, J. D., Strandbergh, D. R. & Zak, B. Clin Chem, 20:470-5 (1974) and Keston, A. Specific colorimetric enzymatic analytical reagents for glucose. Abstract of papers 129th Meeting ACS, 31C (1956).); and depend on the release of a mole of hydrogen peroxide for each mole of analyte, coupled with a color reaction first described by Trinder (Trinder, P. Determination of glucose in blood using glucose oxidase with an alternative oxygen acceptor. Ann Clin Biochem, 6:24 (1969)). The absorbance of the dye produced is linearly related to the analyte in the sample. The assays were further modified in our laboratory for use in a 96 well format. Standards (Sigma #339-11, Sigma #16-11, and Sigma #CC0534 for glucose, triglycerides and total cholesterol, respectively), quality control plasma (Sigma # A2034), and samples (2 or 5 μl/well) were measured in duplicate using 200 μl of reagent. An additional aliquot of sample, pipetted to a third well and diluted in 200 μl water, provided a blank for each specimen. Plates were incubated at room temperature (18, 15, and 10 minutes for glucose, triglycerides and total cholesterol, respectively) on a plate shaker (DPC Micormix 5) and absorbance read at 500 nm (glucose and total cholesterol) or 540 nm (triglycerides) on a plate reader (Wallac Victor 1420). […]

In the case of `Cc1oc(-c2cccs2)nc1CCOc1ccc(CC(C)(Oc2cccc(C(F)(F)F)c2)C(=O)O)cc1` (stereo not drawn) [Example 71, 2-Methyl-3-{4-[2-(5-methyl-2-thiophen-2-yl-oxazol-4-yl)-ethoxy]-phenyl}-2-(3-trifluoromethyl-phenoxy)-propionic acid], the inhibition in vivo at 30 mg/kg came to 97%. In the case of `COc1cccc(OC(C)(Cc2ccc(OCCc3nc(C4CCCCC4)oc3C)cc2)C(=O)O)c1` (stereo not drawn) [Example 76, 3-{4-[2-(2-Cyclohexyl-5-methyl-oxazol-4-yl)-ethoxy]-phenyl}-2-(3-methoxy-phenoxy)-2-methyl-propionic acid], the inhibition in vivo at 30 mg/kg is 97%.

For the compound `Cc1oc(-c2ccccc2)nc1CCOc1ccc(CC(C)(Oc2ccc3c(c2)OCO3)C(=O)O)cc1` (stereo not drawn) [Example 78, 2-(Benzo[1,3]dioxol-5-yloxy)-2-methyl-3-{4-[2-(5-methyl-2-phenyl-oxazol-4-yl)-ethoxy]-phenyl}-propionic acid], the inhibition in vivo at 30 mg/kg came to 86%.

Consider `Cc1oc(C2CCCCC2)nc1CCOc1ccc(CC(C)(Oc2ccc3c(c2)OCO3)C(=O)O)cc1` (stereo not drawn) [Example 80, 2-(Benzo[1,3]dioxol-5-yloxy)-3-{4-[2-(2-cyclohexyl-5-methyl-oxazol-4-yl)-ethoxy]-phenyl}-2-methyl-propionic acid], for which the inhibition in vivo at 30 mg/kg is 83%.

For the compound `Cc1oc(CCc2ccccc2)nc1CCOc1ccc(C[C@](C)(Oc2ccccc2)C(=O)O)cc1` [Example 86, (S)-2-Methyl-3-{4-[2-(5-methyl-2-phenethyl-oxazol-4-yl)-ethoxy]-phenyl}-2-phenoxy-propionic acid], the inhibition in vivo at 30 mg/kg stood at 92%. As for `Cc1oc(-c2ccccc2)nc1CCCc1ccc(CC(C)(Oc2ccccc2)C(=O)O)s1` (stereo not drawn) [Example 91, 2-Methyl-3-{5-[3-(5-methyl-2-phenyl-oxazol-4-yl)-propyl]-thiophen-2-yl}-2-phenoxy-propionic acid], the inhibition in vivo at 30 mg/kg was 71%.
